US5580956A, “Phospholipase C-inhibiting peptides” (priority 1992, dated 1996)
Converted amounts (≈) assume the structure as drawn. Numbered stars: 1 amine (or outer) side, 2 acyl side, 3 side chain; on linkers, the order of the positions; unused ones are H or OH. Peptide text beside a SMILES is read from it. * marks the point of attachment. Cyclopentanecarbonyl = O=C(C1CCCC1)*; Suc = O=C(CCC(=O)[*:2])[*:1]; Hexanoyl = CCCCCC(=O)*

Tests used:
[1] = test system: Proteus vulgaris ATCC6897; assay type: cell-based; details: ATCC6897, pH 7
Procedure: (§1) The antibacterial activity was determined by the agar dilution method using a culture medium (pH 7.0) containing 3 g/l bactotrypton (product of Difco Co.), 1 g/l meat extract, 1 g/l glucose and 16 g/l agar.

[2] = test system: Pseudomonas aeruginosa Bin H No. 1; assay type: cell-based; details: Bin H No. 1, pH 7
Procedure: as §1

KMS-4 cells = assay: Cell proliferation-inhibiting activity (BrdU incorporation, Amersham Cell Proliferation Detection Kit); assay type: cell-based; details: Concentration 31 μM, 17 hours with peptide, BrdU-stained cells
Procedure: The following procedure was carried out with an Amersham Cell Proliferation Detection Kit. First, cells [KMS-4; M. Nanba et al., International Journal of Cancer, 32, 697 (1983)] were suspended in a DMEM culture medium (product of Nissui Seiyaku) containing 10% fetal calf serum to a concentration of 1-2×10^4 cells/ml, and 1 ml of the above-mentioned cell suspension was put into each well of a 24-well plate (product of Corning Co.). The cells were cultured for 2 days in a CO2 incubator (37° C., 5% CO2). Next, the culture medium was exchanged with a DMEM medium containing 10% fetal calf serum, and then the test peptide was added thereto and culturing was carried out for 17 hours. The culture medium was again exchanged with a serum-free DMEM medium, 0.5 ml of a solution of the reagents labelled 5-bromo-2'-deoxyuridine (BrdU) and 5-fluoro-2'-deoxyuridine (FdU) [10:1] diluted 1000-fold with the same medium was added to each well, and cultured for 2 hours. The culture medium was removed, and the cells were immobilized with an acetic acid/ethanol solution. The immobilized cells were stained according to the method for the Amersham Cell Proliferation Kit, and then further stained with a 1% Giemsa solution (product of Merck Co.). The number of cells incorporating BrdU and the total cell count within 1 field of vision of the microscope (approximately 200 cells) were determined, and the proportion (%) of stained cells per field of vision was calculated. Furthermore, the same procedure was repeated 10 times, and the average value thereof was defined as the cell proliferation activity (%). The cell proliferation-inhibiting activity was calculated in the following manner. The proliferation activity without addition of peptide was defined as "A", the proliferation activity with addition of the test peptide was defined as "B", and the cell proliferation inhibition rate (X) was determined according to the following equation. X (%)=[…]

PLC-γ1 = target: T1, PLC-γ1 (Bos taurus, UniProt P08487); assay: PLC-inhibiting activity (release of [3H]inositol phosphate from [3H]PIP2); assay type: biochemical, bovine; details: PI-PLC-γ1, 37° C., 10 minutes, read-out: Inhibition rate (%); for inhibition at 130 µM (stock): Concentration 130 μM (aqueous solution of test peptide)
T1 construct: A sample (PLC-γ1) was prepared from bovine thymus according to the method of Y. Homma et al; from tissue; host or cells: bovine thymus
T1 sequence (P08487 1-1291): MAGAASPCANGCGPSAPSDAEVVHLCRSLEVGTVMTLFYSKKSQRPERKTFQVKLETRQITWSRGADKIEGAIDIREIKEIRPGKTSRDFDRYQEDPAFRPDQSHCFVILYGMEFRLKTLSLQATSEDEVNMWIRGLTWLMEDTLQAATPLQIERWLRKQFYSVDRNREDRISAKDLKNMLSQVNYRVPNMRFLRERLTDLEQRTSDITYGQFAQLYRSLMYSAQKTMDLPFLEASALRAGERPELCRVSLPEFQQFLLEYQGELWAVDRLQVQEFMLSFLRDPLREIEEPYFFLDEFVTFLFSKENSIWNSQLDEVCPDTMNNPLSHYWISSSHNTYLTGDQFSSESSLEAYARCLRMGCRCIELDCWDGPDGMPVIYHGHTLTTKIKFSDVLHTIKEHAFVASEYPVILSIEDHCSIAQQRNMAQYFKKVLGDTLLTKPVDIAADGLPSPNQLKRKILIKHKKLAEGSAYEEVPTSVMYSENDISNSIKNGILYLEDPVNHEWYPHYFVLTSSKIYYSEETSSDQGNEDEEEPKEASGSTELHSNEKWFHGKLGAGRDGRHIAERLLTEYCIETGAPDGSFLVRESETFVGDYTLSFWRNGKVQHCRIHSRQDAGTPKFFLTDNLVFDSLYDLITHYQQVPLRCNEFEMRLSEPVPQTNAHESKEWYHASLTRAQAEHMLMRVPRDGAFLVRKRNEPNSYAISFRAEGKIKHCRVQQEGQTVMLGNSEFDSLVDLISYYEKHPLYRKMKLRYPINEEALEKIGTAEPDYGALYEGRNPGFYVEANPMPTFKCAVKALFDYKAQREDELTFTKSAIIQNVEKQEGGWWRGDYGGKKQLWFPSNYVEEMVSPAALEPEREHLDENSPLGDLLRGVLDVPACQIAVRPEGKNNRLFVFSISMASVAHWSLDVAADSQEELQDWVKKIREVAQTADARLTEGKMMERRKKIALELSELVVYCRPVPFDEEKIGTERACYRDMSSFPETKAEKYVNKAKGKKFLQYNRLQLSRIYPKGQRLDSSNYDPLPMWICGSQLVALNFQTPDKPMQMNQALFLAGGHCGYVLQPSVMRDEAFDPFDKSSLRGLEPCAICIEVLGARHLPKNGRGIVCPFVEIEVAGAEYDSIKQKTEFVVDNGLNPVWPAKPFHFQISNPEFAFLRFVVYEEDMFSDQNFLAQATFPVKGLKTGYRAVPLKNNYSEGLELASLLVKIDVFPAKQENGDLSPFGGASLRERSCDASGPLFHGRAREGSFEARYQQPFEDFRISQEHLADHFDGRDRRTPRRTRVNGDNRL
Procedure: A sample (PLC-γ1) was prepared from bovine thymus according to the method of Y. Homma et al. described in Biochemical Journal [(Biochem. J.), 269, 13 (1990)]. A solution having the composition listed in Table 1 below was prepared in advance on the ice and the reaction was begun with heating to 37° C. After incubation for 10 minutes, 2 ml of a solution mixture of chloroform/methanol (2:[…]) was added thereto to stop the reaction. The resulting inositol phosphate was extracted with 0.5 ml of 1N hydrochloric acid. Two-phase distribution was carried out by centrifugation (2000×g, 3 minutes), and the amount of ^3 H contained in 0.7 ml of the supernatant was measured with scintillation counter. […] The obtained value of specific radioactivity was defined as "A", the value of specific radioactivity obtained when an equivalent amount of water was added instead of the aqueous solution of the test peptide was defined as "B", the value of specific radioactivity obtained when an equivalent amount of water was added instead of the sample and the aqueous solution of the test peptide was defined as "C", and the inhibition rate (X) was determined according to the following equation. X(%)=[…]

Shigella sonnei ATCC9290 = assay: Antibacterial activity, agar dilution method; assay type: cell-based; details: medium pH 7.0
Procedure: as §1

[3] = test system: Salmonella typhi ATCC9902; assay type: cell-based; details: agar dilution, medium pH 7.0
Procedure: as §1

[4] = test system: Bacillus subtilis No. 10107; assay type: cell-based; details: No. 10107, pH 7
Procedure: as §1

[5] = test system: Enterococcus faecium ATCC10541; assay type: cell-based; details: ATCC10541, pH 7
Procedure: as §1

| Compound | MIC [1] [µg/mL] | MIC [2] [µg/mL] | Cell proliferation inhibition rate (%) (KMS-4 cells) | inhibition at 130 µM (stock) (PLC-γ1) [%] | MIC (Shigella sonnei ATCC9290) [µg/mL] | MIC [3] [µg/mL] | MIC [4] [µg/mL] | MIC [5] [µg/mL] | inhibition at 160 µM (stock) (PLC-γ1; Concentration 160 μM (aqueous solution of test peptide)) [%] |
| --- | --- | --- | --- | --- | --- | --- | --- | --- | --- |
| CSCC[C@H](NC(=O)[C@H](CCCCN)NC(=O)[C@H](CCCNC(=N)N)NC(=O)[C@H](Cc1ccc(O)cc1)NC(=O)[C@H](CC(C)C)NC(=O)CCC(=O)O)C(=O)N[C@@H](CCCNC(=N)N)C(=O)N[C@@H](CC(C)C)C(=O)N[C@@H](CCCNC(=N)N)C(=O)N[C@@H](Cc1ccc(O)cc1)C(=O)N1CCC[C@H]1C(=O)N[C@H](C(N)=O)C(C)C [(I-22), HOO (CH2)2 CO-Leu-Tyr-Arg-Lys-Met-Arg-Leu-Arg-Tyr-Pro-Val-NH2] (Suc-LYRKMRLRYPV-NH2) | 83 (≈ 52.1 µM) | 42 (≈ 26.3 µM) | 84 | 36 |  |  |  |  |  |
| CSCC[C@H](NC(=O)[C@H](CCCCN)NC(=O)[C@H](CCCNC(=N)N)NC(=O)[C@H](Cc1ccc(O)cc1)NC(=O)[C@H](CC(C)C)NC(=O)C1CCCC1)C(=O)N[C@@H](CCCNC(=N)N)C(=O)N[C@@H](CC(C)C)C(=O)N[C@@H](CCCNC(=N)N)C(=O)N[C@@H](Cc1ccc(O)cc1)C(=O)N1CCC[C@H]1C(=O)N[C@H](C(N)=O)C(C)C [(I-26), C5 H9 CO-Leu-Tyr-Arg-Lys-Met-Arg-Leu-Arg-Tyr-pro-Val-NH2] (Cyclopentanecarbonyl-LYRKMRLRYPV-NH2) | 83 (≈ 52.2 µM) | 42 (≈ 26.4 µM) | 71 | 23 |  |  |  |  |  |
| CCCCCC(=O)N[C@@H](CC(C)C)C(=O)N[C@@H](Cc1ccc(O)cc1)C(=O)N[C@@H](CCCNC(=N)N)C(=O)N[C@@H](CCCCN)C(=O)N[C@@H](CCSC)C(=O)N[C@@H](CCCNC(=N)N)C(=O)N[C@@H](CC(C)C)C(=O)N[C@@H](CCCNC(=N)N)C(=O)N[C@@H](Cc1ccc(O)cc1)C(=O)N1CCC[C@H]1C(=O)N[C@H](C(N)=O)C(C)C [(I-27), CH3 (CH2)4 CO-Leu-Tyr-Arg-Lys-Met-Arg-Leu-Arg-Tyr-Pro-Val-NH2] (Hexanoyl-LYRKMRLRYPV-NH2) | 83 (≈ 52.1 µM) | 42 (≈ 26.4 µM) | 28 | 35 | 83 (≈ 52.1 µM) | 83 (≈ 52.1 µM) | 83 (≈ 52.1 µM) | 83 (≈ 52.1 µM) |  |
| Ac-YRKMRLRY-NH2 [Compound (I-10), CH3 CO-Tyr-Arg-Lys-Met -Arg-Leu-Arg-Tyr-NH2] | 83 | 83 |  |  |  |  | 83 | 83 | 26 |
